The values below are quoted from earlier work in patent publication US7700612B2, “Di-ester prodrugs of camptothecin, process for their preparation and their therapeutical applications” (Abraxis BioScience, LLC, priority 2003, dated 2010).

For data set [1], the system named is mouse leukemia L 1210. Particulars: initial test, Wall et al.
For data set [2] the following is noted: animal models; J. Med. Chem. 23, 554 (1980).

Consider `CC[C@@]1(O)C(=O)OCc2c1cc1n(c2=O)Cc2cc3ccccc3nc2-1` [Camptothecin], for which the solubility in water result was “insoluble”. The “activity against mouse leukemia L 1210 system” value in data set [1] is “active”.

For the compound `CC[C@@](O)(C(=O)[O-])c1cc2n(c(=O)c1CO)Cc1cc3ccccc3nc1-2.[Na+]` [CPT sodium carboxylate], the solubility in water result was “water-soluble”. Moreover, in data set [2], the “potency relative to the parent camptothecin” value is listed as 10-20%.
